US20090253644A1, “Radiosensitizer” (TOYO SUISAN KAISHA, LTD., priority 2004, published 2009)
Several values for one entry are separate records, joined by “and”; a condition that tells them apart may be missing. Identical values can stand only once.

Experiments:
[1] = test system: human tongue squamous carcinoma cells (SAS cells); experiment: Animal experiment: SAS tumor-transplanted nude mice, tumor growth delay with X-ray irradiation; format: in vivo; conditions: for enhancement ratio (ER): tumor volume 500 mm^3
Description: Nude mice were assigned to four groups (control group; single use group of the present radiosensitizer administration; single use group of irradiation; and combined use group of irradiation and the present radiosensitizer administration; 4 mice per group). 1.0×10^6 human tongue squamous carcinoma cells (SAS cells) were suspended in PBS(−), and the suspension was transplanted subcutaneously into a right thigh of each mouse. After 10 to 14 days, when tumor volume became a desired value in a range of about 50 mm^3 to about 100 mm^3, each mouse was subjected to treatment according to each group. As a radiosensitizer, 3-O-(6-deoxy-6-sulfo-α-D-glucopyranosyl)-1-O-stearoyl-glycerol sodium salt (hereinafter, also referred to as “α-SQMG C18:0”) was used. Regarding the single use group of irradiation, X-ray was irradiated two times (at the time of treatment initiation (day 0) and on day 6 after the treatment initiation) at a dose of 8 Gy. Regarding the single use group of α-SQMG C18:0 administration, the sensitizer was intraperitoneally administered two times (day 0 and day 6) at a concentration of 1 mg/kg. Regarding the combined use group, each mouse of the group was treated with both of irradiation and α-SQMG C18:0 administration. Regarding the control group, neither irradiation nor α-SQMG C18:0 administration was performed. Thereafter, a short diameter and a long diameter of a tumor were measured with a micrometer caliper over a period of 16 to 23 days. Tumor volume was calculated by the following equation, and the tumor growth delaying effect was compared.
Equation for calculating tumor volume:
tumor volume (mm^3)=(short diameter)^2×(long diameter)×0.5
(§1) The same experiment as that of Experimental Example 1-1 was performed except that irradiation was performed at the time of treatment initiation (day 0) and on day 4 after the treatment initiation, administration of α-SQMG C18:0 was performed only on day 0, and measurement of tumor size was performed over a period of 26 days.
In order to express numerically this synergistic effect, ER (enhancement ratio) was calculated by the following equation. ER is a value defined by the literature (Int., J. Radiation Oncology Bio. Phys. Vol. 55, No. 3, pp. 713-723 (2003)), and ER will be explained below based on the definition.
ER=NGD÷TGD in the case of X-ray irradiation alone
In the equation, “TGD (tumor growth delay)” indicates delay of days necessary for tumor volume to reach a predetermined size in each test group as compared with a control group. That is, this is expressed by the following equation. In the Examples of the present invention, the predetermined size of tumor volume is 500 mm^3, unless otherwise indicated.
TGD=(number of days necessary for tumor volume to reach 500 mm^3 in test group)−(number of days necessary for tumor volume to reach 500 mm^3 in control group)
“NGD (normalized growth delay)” is expressed by the following equation.
NGD=(TGD in the case of combined use)−(TGD in the case of drug administration alone)
According to the aforementioned literature, it can be said that the anti-tumor effect is synergistic, when an enhancement ratio (ER) obtained by the above equation exceeds 1.0.
as §1, with “3” for “4”, “initiation,” for “initiation, administration of”, “administered once a” for “performed only on”, “from day 0 to day 4,” for “0,”, “35” for “26”
In the present Experimental Example, an experiment was performed in the same manner as in the above Experimental Example except that irradiation was performed at a dose of 2 Gy per fraction everyday from the time of treatment initiation (day 0) to day 4, and administration of α-SQMG C18:0 was performed everyday from day 0 to day 4. Details of the experiment will be described below.
Four nude mice (eight weeks old) were randomly assigned to each of four groups. […]

[2] = test system: Bovine aortic endothelial cells (BAEC); experiment: Colony assay on vascular endothelial cells with 60Co γ-ray irradiation; format: cell-based; design: key to actually measured SF value of combined use group / actually measured SF value of combined use: SF = colonies/seeded cells×(PE/100); PE = control colony formation rate; conditions: for SF (cell surviving fraction), administration alone: 24 hours, no irradiation
Description: Bovine aortic endothelial cells (BAEC) were appropriately seeded on a petri dish, and adhesion of cells was confirmed after 2 to 3 hours. In a group of α-SQMG C18:0 administration alone and a combined use group, the cells were treated with 10 μM of α-SQMG C18:0. After 24 hours, a medium was exchanged in all test groups, and 4 Gy of ^60Co γ-ray was irradiated in a group of irradiation alone and a combined use group. After the cells were cultured in a CO2 incubator at 37° C. for 10 to 12 days, formed colonies were fixed with formalin, and stained with a crystal violet staining solution. On each plate, the number of colonies consisting of about 50 or more cells was counted, and cell surviving fraction (SF) was obtained according to the following equation.
SF (cell surviving fraction)=number of colonies/number of seeded cells×(PE/100)
Herein, PE (plating efficiency) represents a colony formation rate (%) on a plate of a control.
An experiment was performed three times, and an average of them was calculated.
The same experiment as that of Experimental Example 2-1 was performed except that a radiation dose 6 Gy was irradiated in place of 4 Gy used in Experimental Example 2-1. […]

[3] = test system: angiogenesis (tube formation); experiment: Assay by angiogenesis kit (KZ-1000), tube formation; format: cell-based
Description: The anti-angiogenic effect obtained by combined use of 20 μM of α-SQMG C18:0 administration and 4 Gy of ^60Co γ-ray irradiation was investigated using an angiogenesis kit (“angiogenesis kit KZ-1000” of Kurabo Industries Ltd.).
A drug named Suramin is the known substance as a drug suppressing angiogenesis, and it is known that its action is to inhibit a growth factor receptor of a vascular endothelial cell. In the present Example, Suramin was used as a positive control at 50 μM.
As described above, the “theoretical additive point of combined use” is calculated by multiplication, and the theoretical value is compared with an actually measured value.

[4] = Exp. Ex. 1-2: X-ray 8 Gy day 0 and day 4, 1 mg/kg i.p. day 0 only
[5] = Exp. Ex. 1-3: X-ray 8 Gy day 0 and day 3, 1 mg/kg i.p. once a day day 0 to 4
[6] = 4 Gy 60Co γ-ray + α-SQMG C18:0 20 μM or Suramin 50 μM

CCCCCCCCCCCCCCCCCC(=O)OCC(O)CO[C@H]1O[C@H](CS(=O)(=O)[O-])[C@@H](O)[C@H](O)[C@H]1O.[Na+] (stereo partly drawn) [α-SQMG C18:0, 3-O-(6-deoxy-6-sulfo-α-D-glucopyranosyl)-1-O-stearoyl-glycerol sodium salt]
anti-tumor effect (tumor volume), combined use with irradiation ([1]; Exp. Ex. 1-1: X-ray 8 Gy day 0 and day 6, 1 mg/kg i.p. day 0 and day 6): anti-tumor effect far exceeding the anti-tumor effect attained by irradiation
anti-tumor effect (tumor volume), combined use with irradiation [1, 4]: anti-tumor effect far exceeding the anti-tumor effect attained by irradiation
enhancement ratio (ER) [1, 4]: 2.0
anti-tumor effect (tumor volume), combined use with irradiation [1, 5]: anti-tumor effect far exceeding the anti-tumor effect attained by irradiation
enhancement ratio (ER) [1, 5]: 3.0
anti-tumor effect (tumor volume), combined use with irradiation ([1]; Exp. Ex. 1-4: X-ray 2 Gy once a day day 0 to 4 (total 10 Gy), 1 mg/kg i.p. once a day day 0 to 4): anti-tumor effect exceeding the anti-tumor effect attained by irradiation alone
enhancement ratio (ER) ([1]; Exp. Ex. 1-4: X-ray 2 Gy once a day day 0 to 4, 1 mg/kg i.p. once a day day 0 to 4): 1.8
actually measured SF value of combined use ([2]; 5 μM + 2 Gy 60Co γ-ray): 0.1370
theoretical additive point of combined use (SF) ([2]; 5 μM + 2 Gy 60Co γ-ray): 0.6012
SF (cell surviving fraction), administration alone ([2]; 5 μM): 1.0094
actually measured SF value of combined use ([2]; 10 μM + 2 Gy 60Co γ-ray): 0.0644
theoretical additive point of combined use (SF) ([2]; 10 μM + 2 Gy 60Co γ-ray): 0.5620
actually measured SF value of combined use group ([2]; 10 μM + 4 Gy 60Co γ-ray): 0.0640
theoretical additive point of combined use (SF) ([2]; 10 μM + 4 Gy 60Co γ-ray): 0.0974
actually measured SF value of combined use group ([2]; 10 μM + 6 Gy 60Co γ-ray): 0.0180
theoretical additive point of combined use (SF) ([2]; 10 μM + 6 Gy 60Co γ-ray): 0.0505
SF (cell surviving fraction), administration alone ([2]; 10 μM, sodium salt): 0.616 and 0.9433
synergistic effect of combined use with radiation on suppression of proliferation of vascular endothelial cells ([2]; 10 μM, 4 Gy and/or 6 Gy): considerably great synergistic effect
cell proliferation suppressing effect, treatment alone ([2]; Exp. Ex. 2-5: 0 to 25 μM, 0 Gy): cell proliferation suppressing effect is not obtained
effect of irradiation on suppression of cell proliferation, combined use ([2]; Exp. Ex. 2-5: 0 to 25 μM, 2 to 8 Gy 60Co γ-ray): increased
tube formation rate, Actually measured value, combined use [3, 6]: 0.0762
tube formation rate, Theoretical value (theoretical additive point of combined use) [3, 6]: 0.467
tube formation rate, use alone ([3]; α-SQMG C18:0 20 μM, Suramin 50 μM, no irradiation): 0.7229
